Experimental data taken from patent publication US20070225333A1, “3-Heterocyclyl-4-Phenyl-Triazole Derivatives as Inhibitors of the Vasopressin Via Receptor” (priority 2004, published 2007).

Molecular target: T1, human V1A receptor (Homo sapiens, UniProt P37288)
T1 construct: expressed in transfected cells; host or cells: CHO cells (CHO-hV1A line provided by Marc Thibonnier, Case Western Reserve University)
Test: V1A filter binding assay ([3H]-AVP binding to CHO-hV1A membranes)
Conditions: Ki by Cheng-Prusoff
Description: 1.0 V1A Filter Binding Assay
Receptor binding assays were performed on cellular membranes prepared from CHO cells stably expressing the human V1A receptor, (CHO-hV1A). The CHO-hV1A cell line was kindly provided under a licensing agreement by Marc Thibonnier, Dept. of Medicine, Case Western Reserve University School of Medicine, Cleveland, Ohio. CHO-hV1A cells were routinely maintained at 37° C. in humidified atmosphere with 5% CO2 in DMEM/Hams F12 nutrient mix supplemented with 10 % fetal bovine serum, 2 mM L-glutamine, 15 mM HEPES and 400 μg/ml G418. For bulk production of cell pellets, adherent CHO-hV1A cells were grown to confluency of 90-100% in 850 cm^2 roller bottles containing a medium of DMEM/Hams F12 Nutrient Mix supplemented with 10% fetal bovine serum, 2 mM L-glutamine and 15 mM HEPES. Confluent CHO-hV1A cells were washed with phosphate-buffered saline (PBS), harvested into ice cold PBS and centrifuged at 1,000 rpm. Cell pellets were stored at −80° C. until use. Cell pellets were thawed on ice and homogenised in membrane preparation buffer consisting of 50 mM Tris-HCl, pH 7.4, 5 mM MgCl2 and supplemented with a protease inhibitor cocktail, (Roche). The cell homogenate was centrifuged at 1000 rpm, 10 min, 4° C. and the supernatant was removed and stored on ice. The remaining pellet was homogenised and centrifuged as before. The supernatants were pooled and centrifuged at 25,000× g for 30 min at 4° C. The pellet was resuspended in freezing buffer consisting of 50 mM Tris-HCl, pH 7.4, 5 mM MgCl2 and 20% glycerol and stored in small aliquots at −80° C. until use. Protein concentration was determined using Bradford reagent and BSA as a standard.
Protein linearity followed by saturation binding studies were performed on each new batch of membrane. Membrane concentration was chosen that gave specific binding on the linear portion of the curve. Saturation binding studies were then performed using various concentrations of [^3H]-arginine vasopressin, [^3H]-AVP (0.05 nM-100 nM) and the Kd and Bmax determined.
Compounds were tested for their effects on [^3H]-AVP binding to CHO-hV1A membranes, (^3H-AVP; specific activity 65.5 Ci/mmol; NEN Life Sciences). Compounds were solubilised in dimethylsulfoxide (DMSO) and diluted to working concentration of 10% DMSO with assay buffer containing 50 mM Tris-HCL pH 7.4, 5 mM MgCl2 and 0.05% BSA. […] The binding reaction was initiated by the addition of 200 μl membrane and the plates were gently shaken for 60 min at room temperature. The reaction was terminated by rapid filtration using a Filtermate Cell Harvester (Packard Instruments) through a 96-well GF/B UniFilter Plate which had been pre-soaked in 0.5% polyethyleneimine to prevent peptide sticking. The filters were washed three times with 1 ml ice cold wash buffer containing 50 mM Tris-HCL pH 7.4 and 5 mM MgCl2. The plates were dried and 50 μl Microscint-0 (Packard instruments) was added to each well. The plates were sealed and counted on a TopCount Microplate Scintillation Counter (Packard Instruments). Non-specific binding (NSB) was determined using 1 μM unlabelled d(CH2)5Tyr(Me)AVP ([β-mercapto-β,β-cyclopentamethylenepropionyl,0-Me-Tyr^2,Arg^8]-vasopressin) (βMCPVP), (Sigma). The radioligand binding data was analysed using a four parameter logistic equation with the min forced to 0%. The slope was free fitted and fell between −0.75 and −1.25 for valid curves. Specific binding was calculated by subtracting the mean NSB cpm from the mean Total cpm. For test compounds the amount of ligand bound to the receptor was expressed as % bound=(sample cpm−mean NSB cpm)/specific binding cpm ×100. The % bound was plotted against the concentration of test compound and a sigmoidal curve was fitted. The inhibitory dissociation constant (Ki) was calculated using the Cheng-Prusoff equation: Ki=IC50/(1+[L]/Kd) where [L] is the concentration of ligand present in the well and Kd is the dissociation constant of the radioligand obtained from Scatchard plot analysis. […]

T1 sequence (P37288 whole entry): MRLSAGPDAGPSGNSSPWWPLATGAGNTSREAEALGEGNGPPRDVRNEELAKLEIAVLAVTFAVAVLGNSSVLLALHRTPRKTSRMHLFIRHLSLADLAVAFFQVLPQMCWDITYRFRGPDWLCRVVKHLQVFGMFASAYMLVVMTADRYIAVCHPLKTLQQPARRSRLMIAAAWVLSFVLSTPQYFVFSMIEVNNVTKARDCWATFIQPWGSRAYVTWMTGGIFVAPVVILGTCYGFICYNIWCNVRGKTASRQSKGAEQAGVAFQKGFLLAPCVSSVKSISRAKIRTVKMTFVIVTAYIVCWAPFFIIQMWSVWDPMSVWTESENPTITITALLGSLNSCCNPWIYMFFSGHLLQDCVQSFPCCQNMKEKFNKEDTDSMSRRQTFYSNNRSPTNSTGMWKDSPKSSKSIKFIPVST

Compared with `Cc1nnc(N2CCC(Oc3ccccc3)CC2)n1-c1ccc(Cl)cc1` [Example 26, 1-[4-(4-Chloro-phenyl)-5-methyl-4H-[1,2,4]triazole-3-yl]-4-phenoxy-piperidine], `Cc1nnc(N2CCC(N(C)c3ccccn3)CC2)n1-c1ccc(Cl)cc1` [Example 40, N-{1-[4-(4-Chlorophenyl)-5-methyl-4H-1,2,4-triazol-3-yl]-piperidin-4-yl}-N-methylpyridin-2-amine] is 6.4-fold lower in Ki: 3.19 nM for the first, 0.5 nM for the second. The second binds more tightly here.

`COCc1nnc(N2CCC(Oc3ccccn3)CC2)n1-c1ccc(Cl)cc1` [Example 33, 2-({1-[4-(4-Chlorophenyl)-5-(methoxymethyl)-4H-1,2,4-triazol-3-yl]piperidin-4-yl}oxy)pyridine] and `CCOCc1nnc(N2CCC(Oc3ncccn3)CC2)n1-c1ccc(Cl)cc1` [Example 38] are within 1.5-fold of each other in Ki: 1.28 nM for the first, 0.96 nM for the second.

`Clc1ccc(-n2c(Cn3nccn3)nnc2N2CCC(Oc3ncccn3)CC2)cc1` [Example 34, 2-{1-[4-(4-Chloro-phenyl)-5-[1,2,3]triazole-2-ylmethyl-4H-[1,2,4]triazole-3-yl]-piperidin-4-yloxy}-pyrimidine] and `Cc1nnc(N2CCC(N(C)c3ncccn3)CC2)n1-c1ccc(Cl)cc1` [Example 41, N-{1-[4-(4-Chlorophenyl)-5-methyl-4H-1,2,4-triazol-3-yl]-piperidin-4-yl}-N-methylpyrimidin-2-amine] are within 1.5-fold of each other in Ki: 1.06 nM for the first, 1.49 nM for the second.
